Data published in PMC11130353, “Using host-mimicking conditions and a murine cutaneous abscess model to identify synergistic antibiotic combinations effective against Pseudomonas aeruginosa” (Frontiers in Cellular and Infection Microbiology, 2024).
In brackets after ≈: the same amount, converted by molar mass. Like-named read-outs stand apart in the source and are kept apart here.

Columns and labels:
P. aeruginosa PAO1 = experiment: Minimum inhibitory concentration, broth microdilution; assay type: cell-based, Pseudomonas aeruginosa; conditions: for MIC: Pseudomonas aeruginosa, PAO1
Procedure: (§1) For susceptibility testing under standard conditions, bacteria were cultured in Muller Hinton Broth MHB (Fort Richards Laboratories). […] Further susceptibility testing was also conducted in MHB supplemented with FBS (5% v/v) and DMEM supplemented with glucose (1% w/v) and MHB (10% v/v).
(§2) The minimum inhibitory concentration (MIC) of each antibiotic was determined using the broth microdilution method in 96-well plates. […] Briefly, antibiotics were two-fold serially diluted in MHB or TCM prior to adding 1 × 10^6 CFU mL^-1 bacteria. Plates were incubated at 37°C for 22-24 hours. The MIC was recorded as the lowest antibiotic concentration with no visible growth and the median value of at least three biological replicates reported.

P. aeruginosa LESB58 [1] = experiment: Murine high density subcutaneous skin abscess model; assay type: in vivo, Pseudomonas aeruginosa; conditions: day 3; for Area of dermoncecrosis, Mean: female Swiss Webster mice
Procedure: Mice used in this study were female Swiss Webster aged approximately 6-7 weeks and sourced from the University of Otago Biomedical Research Facility. […] The subcutaneous abscess infection model was performed as previously described ([Pletzer et al., 2017]) with a higher inoculum. Briefly, the fur on the back of each mouse was removed by shaving and chemical depilation. Antibiotics were tested for skin toxicity by injecting 50 μL of antibiotic suspension subcutaneously into naïve mice, and subsequent inspection of the skin for inflammation on the next day. P. aeruginosa LESB58 was grown to mid-log phase in dYT broth, washed twice in sterile PBS (Gibco, pH 7.4), and resuspended in PBS to ~1 x 10^8 CFU per 50 μL inoculum. The bacterial suspension (50 μL) was injected subcutaneously into the right side of the dorsum, followed one hour later by 50 μL of antibiotic treatment injected directly into the infected area. […] Combination treatments were administered as a single 50 μL injection containing both antibiotics. The concentration of each antibiotic in the combination was the same as when it was used alone. Progression of the infection was monitored daily, and abscess dimensions were measured on day three using a calliper. On day three, abscess tissue and pus were excised, homogenized in sterile PBS using SPEX SamplePrep 1600 MiniG for five minutes and bacterial CFU counts determined by serial dilution. In this model, synergy was defined as being a significant difference between the combination treated group and the amalgamated group of single drug treated animals ([Fantin and Carbon, 1992]; [Pletzer et al., 2018]).
Statistical analysis was performed using GraphPad Prism 9.5.1. Bacterial CFU and abscess size data from in vivo experiments was analysed by Kruskal-Wallace test with Dunn’s correction for multiple comparisons. The data was considered significant when p-values were below 0.05 or 0.01 as indicated.

P. aeruginosa LESB58 [2] = experiment: Minimum bactericidal concentration; assay type: cell-based; conditions: Pseudomonas aeruginosa
Procedure: (§3) For susceptibility testing under standard conditions, bacteria were cultured in Muller Hinton Broth MHB (Fort Richards Laboratories). Host mimicking conditions in vitro were simulated using tissue culture medium (TCM) consisting of Dulbecco’s modified Eagle medium (DMEM; Gibco #11965) supplemented with FBS (Moregate Biotech) (5% v/v) and glucose (1% w/v). Further susceptibility testing was also conducted in MHB supplemented with FBS (5% v/v) and DMEM supplemented with glucose (1% w/v) and MHB (10% v/v).
The minimum bactericidal concentration (MBC) was determined by spotting 5 μL from wells of the MIC plate at or above the MIC onto antibiotic free dYT agar. Plates were incubated at 37°C for another 22-24 hours. The MBC was recorded as the lowest antibiotic concentration with no visible growth on agar plates and the median value reported.

P. aeruginosa LESB58 [3] = experiment: microbe, parasite or virus in culture; assay type: cell-based, Pseudomonas aeruginosa; conditions: for MIC: Pseudomonas aeruginosa; for MIC in MHB / MIC in TCM: 20-24 h; for MIC in TCM: TCM (DMEM + 1% glucose + 5% FBS)
Procedure: as §1
as §2, with “Plates were incubated at 37°C for 22-24 hours.” left out

[4] = female, Swiss Webster, mouse, in vivo, sc, 1 day
Procedure: Mice used in this study were female Swiss Webster aged approximately 6-7 weeks and sourced from the University of Otago Biomedical Research Facility. […] Briefly, the fur on the back of each mouse was removed by shaving and chemical depilation. Antibiotics were tested for skin toxicity by injecting 50 μL of antibiotic suspension subcutaneously into naïve mice, and subsequent inspection of the skin for inflammation on the next day. P. aeruginosa LESB58 was grown to mid-log phase in dYT broth, washed twice in sterile PBS (Gibco, pH 7.4), and resuspended in PBS to ~1 x 10^8 CFU per 50 μL inoculum. The bacterial suspension (50 μL) was injected subcutaneously into the right side of the dorsum, followed one hour later by 50 μL of antibiotic treatment injected directly into the infected area. […] Combination treatments were administered as a single 50 μL injection containing both antibiotics. The concentration of each antibiotic in the combination was the same as when it was used alone. Progression of the infection was monitored daily, and abscess dimensions were measured on day three using a calliper. On day three, abscess tissue and pus were excised, homogenized in sterile PBS using SPEX SamplePrep 1600 MiniG for five minutes and bacterial CFU counts determined by serial dilution.

P. aeruginosa LESB58-lux = experiment: In vitro synergy, checkerboard assay (luminescence readout); assay type: cell-based, Pseudomonas aeruginosa; conditions: TCM, LESB58-lux
Procedure: as §3
The P. aeruginosa LESB58.lux strain was used for in vitro synergy experiments with azithromycin in MHB and all antibiotic combinations in TCM to determine bacterial growth (as visual inspection and absorbance measurements were unreliable). Synergy was determined using the checkerboard method ([Berenbaum, 1978]; [Pletzer and Hancock, 2018]) in at least triplicate. Each antibiotic was two-fold serially diluted in sterile water before transferring to a 96-well plate containing 1 × 10^6 CFU mL^-1 bacteria in MHB or TCM. Plates were incubated at 37°C for 22-24 hours. The MIC alone or in combination was recorded as the lowest antibiotic concentration with no visible growth. For experiments using the LESB58.lux strain no visible growth was defined as an at least 95% reduction compared to the no antibiotic growth control in luminescence detected using a ClarioStar plate reader. The fractional inhibitory concentration index (FICI) was calculated as [(MICA in combination)/MICA] + [(MICB in combination)/MICB]. FICI values of 0.5 or below indicated synergy, while values above 0.5 up to and including 1 were taken to indicate additivity. FICI values above 1 indicate indifference or antagonism ([Odds, 2003]).

[5] = Colistin, tigecycline and tobramycin groups, compared to the vehicle control
[6] = LESB58, TCM (DMEM + 1% Glucose + 10% MHB)
[7] = LESB58, TCM (DMEM + 1% glucose + 5% FBS)
[8] = LESB58, read-out: MIC in MHB, MHB, 20-24 h
[9] = LESB58, read-out: MIC in TCM, TCM (DMEM + 1% glucose + 5% FBS), 20-24 h

With `CC(C)(O/N=C(\C(=O)N[C@@H]1C(=O)N2C(C(=O)[O-])=C(C[n+]3ccccc3)CS[C@H]12)c1csc(N)n1)C(=O)O` [CAZ, ceftazidime] the “Fold change TCM vs MHB (MIC)” value (P. aeruginosa PAO1; MIC in TCM vs MIC in MHB) was 8, the MIC (P. aeruginosa PAO1; read-out: MIC in MHB) was 3.13 µg/mL (≈ 5.73 µM) and the MIC (P. aeruginosa PAO1; read-out: MIC in TCM) was 25 µg/mL (≈ 45.7 µM). For the same compound, the “CFU per abscess, Fold change” value (P. aeruginosa LESB58 [1]; Azithromycin group, compared to the vehicle control) was -1.4, the “CFU per abscess, Geometric mean” value (P. aeruginosa LESB58 [1]; Azithromycin group, CAZ or CZA 50 mg/mL, AZM 6.25 mg/mL) was 2.6 × 10^8 CFU per abscess and the “Area of dermoncecrosis, Mean” value (P. aeruginosa LESB58 [1]; Azithromycin group, 50 μL s.c. into infected area 1 h after infection, CAZ or CZA 50 mg/mL, AZM 6.25 mg/mL, vehicle citric acid in saline) was 107.3 mm^2. For the same compound, the “Area of dermoncecrosis, Mean” value (P. aeruginosa LESB58 [1]; Colistin, tigecycline and tobramycin groups (shared vehicle, CAZ and CZA mice), 50 μL s.c. 1 h after infection, CAZ or CZA 50, CST 1.25, TGC 2.5, TOB 2 mg/mL, vehicle 0.9% saline) was 85.3 mm^2, the “Area of dermoncecrosis, % reduction” value (P. aeruginosa LESB58 [1]; [5]) was 9.2% and the “CFU per abscess, Fold change” value (P. aeruginosa LESB58 [1]; [5]) was -1.8. For the same compound, the “CFU per abscess, Geometric mean” value (P. aeruginosa LESB58 [1]; Colistin, tigecycline and tobramycin groups) was 1.3 × 10^8 CFU per abscess, the MBC (P. aeruginosa LESB58 [2]; LESB58, MHB) was > 500 µg/mL and the MBC (P. aeruginosa LESB58 [2]; LESB58, MHB + 5% FBS) was > 500 µg/mL. For the same compound, the MBC (P. aeruginosa LESB58 [2]; [6]) was 500 µg/mL, the MBC (P. aeruginosa LESB58 [2]; [7]) was > 500 µg/mL and the “Fold increase MIC of CAZ or CZA” value (P. aeruginosa LESB58 [3]; MHB + 5% FBS compared to MHB) was 8. The “Fold increase MIC of CAZ or CZA” value (P. aeruginosa LESB58 [3]; MHB + 5% FBS compared to MHB, listed as ceftazidime) was “eight”, the “Fold change TCM vs MHB (MIC)” value (P. aeruginosa LESB58 [3]; MIC in TCM vs MIC in MHB) was 4 and the MIC (P. aeruginosa LESB58 [3]; LESB58, MHB + 5% FBS) was 250 µg/mL. For the same compound, the MIC (P. aeruginosa LESB58 [3]; [6]) was 62.5 µg/mL, the MIC (P. aeruginosa LESB58 [3]; [8]) was 31.2 µg/mL (≈ 57.2 µM) and the MIC (P. aeruginosa LESB58 [3]; [9]) was 125 µg/mL. For the same compound, the “Fold increase MIC of CAZ or CZA” value (P. aeruginosa LESB58 [3]; TCM (DMEM + 1% Glucose + 10% MHB) compared to MHB) was 2, the “Fold increase MIC of CAZ or CZA” value (P. aeruginosa LESB58 [3]; TCM (DMEM + 1% Glucose + 10% MHB) compared to MHB, listed as ceftazidime) was “two” and the “Fold increase MIC of CAZ or CZA” value (P. aeruginosa LESB58 [3]; TCM (DMEM + 1% glucose + 5% FBS) compared to MHB) was 4. The “Fold increase MIC of CAZ or CZA” value (P. aeruginosa LESB58 [3]; TCM (DMEM + 1% glucose + 5% FBS) compared to MHB, listed as ceftazidime) was “four”, the “Highest tolerated dose tested” value [4] was 50 mg/mL and the “Toxic (visible skin irritation, inflammation, blood vessels, swelling)” value [4] was 100 mg/mL.

In the case of `NC(=O)[C@@H]1CC[C@@H]2CN1C(=O)N2OS(=O)(=O)O` [AVI, avibactam], the MBC (P. aeruginosa LESB58 [2]; LESB58, MHB) is reported as > 125 µg/mL, the MBC (P. aeruginosa LESB58 [2]; [7]) is reported as 62.5 µg/mL and the “MIC in MHB” value (P. aeruginosa LESB58 [3]; listed as Avibactam) is reported as “no antimicrobial activity”. The “MIC in MHB” value (P. aeruginosa LESB58 [3]; listed as avibactam) was “not observed”, the MIC (P. aeruginosa LESB58 [3]; [8]) was > 125 µg/mL and the MIC (P. aeruginosa LESB58 [3]; [9]) was 31.2 µg/mL. The “MIC in TCM” value (P. aeruginosa LESB58 [3]; listed as Avibactam) was “significant antimicrobial activity”, the “MIC in TCM” value (P. aeruginosa LESB58 [3]; listed as avibactam) was “had anti-pseudomonal activity” and the “Highest tolerated dose tested” value [4] was 12 mg/mL. For the same compound, the “Fold decrease in CAZ MIC, drug combined with CAZ” value (P. aeruginosa LESB58-lux) was 8, the “Fold decrease in other MIC, drug combined with CAZ” value (P. aeruginosa LESB58-lux) was 4 and the “FICI, drug combined with CAZ” value (P. aeruginosa LESB58-lux; FICI <= 0.5 indicates synergy) was 0.38.
